From patent publication US6448273B1, “Orally active iron (III) chelators” (BTG International Limited, priority 1997, dated 2002)
Structures can show the parent of a compound that is named as a salt. Where two headings read alike, the source gives them in different places.

What was measured:
[1] = Distribution coefficient DpH7.4 (Kpart), octanol/MOPS pH 7.4; format: physicochemical
Description: The requirements for orally active chelators are set out in Table 4 of Hider et al as (i) good absorption from tile gastrointestinal tract, (ii) efficient liver extraction, (iii) poor entry into peripheral cells such as thymus, muscle, heart and bone marrow and (iv) poor ability to penetrate the blood-brain barrier and maternal/placental barriers.

[2] = pKa of the ligand; format: physicochemical
[3] = Iron (III) complex stability constant Logβ3; format: physicochemical
[4] = pM for Iron III (affinity for iron as Fe III); format: physicochemical; conditions: negative log ferric ion concentration; total iron 10^-6 M, ligand 10^-5 M
Description: The present inventors now have provided a group of 3-hydroxypyridin-4-one iron chelators having improved properties as compared to the prior art as assessed against the criteria set out above. […] Preferred compounds have efficiency of iron mobilisation of in excess of 52% when given orally to rats. […]

[5] = Iron III Mobilisation Efficacy Assay in Rat: Oral Administration; format: in vivo; conditions: for Efficacy: iron mobilisation less control
Method: Control rats were given an equivalent volume of water. The rats were placed in individual metabolic cages and their urine and faeces collected. One hour after the administration they were allowed access to food, with no restriction on water being made throughout the study period. The investigation was terminated 24 hours after the ^59Fe ferritin administration when rats were sacrificed and their livers and gastrointestinal tracts, including all contents including faeces, were removed for gamma counting.

[6] = cited from earlier work
[7] = in vivo; cited from earlier work
[8] = method marked (p), first pKa, read-out: pKa, first value (p)
[9] = method marked (s), first pKa, read-out: pKa, first value (s)
[10] = method marked (p), second pKa, read-out: pKa, second value (p)
[11] = method marked (s), second pKa, read-out: pKa, second value (s)

| DpH 7.4 [1] | pKa, second value (s) ([2]; method marked (s), second pKa) | Logβ3 [3] | pMpH 7.45 [4] | melting point [°C] | pKa [2, 8] | pKa [2, 9] | pKa [2, 10] | pKa [2, 11] | Compound | pKa, first value (s) ([2]; method marked (s), first pKa) | Iron Mobilisation ([5]; 150 μmol/kg) [%] | Efficacy ([5]; 150 μmol/kg) [%] | Iron Mobilisation ([5]; 300 μmol/kg) [%] | Efficacy ([5]; 300 μmol/kg) [%] | Iron Mobilisation ([5]; 450 μmol/kg) [%] | Efficacy ([5]; 450 μmol/kg) [%] | effectiveness in man [6] | crossing of placenta and blood brain barrier [7] | phase II metabolism [7] |
| --- | --- | --- | --- | --- | --- | --- | --- | --- | --- | --- | --- | --- | --- | --- | --- | --- | --- | --- | --- |
| 1.79 | – | 36.7 | 19.7 | – | – | – | – | – | CCc1c(O)c(=O)ccn1CC [CP94, 1,2-diethyl-3-hydroxypyridin-4-one, reference compound] | – | 16.5 ± 6.2 | 12.6 | 35.7 ± 4.4 | 31.8 | 59.7 ± 10.9 | 55.8 | effective in man | able to cross the placenta and blood brain barrier | rapidly inactivated by phase II metabolism |
| 0.056 | 9.14 | 35.25 | 20.69 | 138 to 139 | – | – | – | – | O=c1ccn(CCCO)c(CO)c1O [CP366, 1-(3-hydroxypropyl)-2-hydroxymethyl-3-hydroxy-pyridin-4(1H)-one] | 2.87 | – | – | – | – | – | – | – | – | – |
| 0.73 | 8.98 | 35.03 | 20.95 | – | 2.76 | 2.78 | – | – | CCC(O)c1c(O)c(=O)cc(C)n1C (centres unmarked) [CP374, 1,6-Dimethyl-2-(1-hydroxypropyl)-3-hydroxy-pyridin-4(1H)-one hydrochloride] | – | 34.0 ± 4.3 | 30.1 | – | – | 60.4 ± 15.6 | 56.5 | – | – | – |
| 0.30 | – | 35.34 | 22.46 | – | 2.81 | 2.64 | 8.74 | 8.56 | Cc1cc(=O)c(O)c(C(=O)NC(C)C)n1C [CP504, 1,6-Dimethyl-3-hydroxy-4(1H)-pyridinone-2-carboxy-(N-isopropyl)-amide hydrochloride] | – | – | – | – | – | – | – | – | – | – |
| 0.04 | – | 34.88 | 22.57 | – | 2.62 | 2.5 | 8.34 | 8.35 | COCCNC(=O)c1c(O)c(=O)cc(C)n1C [CP506, 1,6-Dimethyl-3-hydroxy-4(1H)-pyridinone-2-carboxy-(N-2′-methoxyethyl)-amide hydrochloride] | – | – | – | – | – | – | – | – | – | – |
| 0.02 | – | 34.63 | 22.73 | – | 2.65 | 2.57 | 8.28 | 8.19 | Cc1cc(=O)c(O)c(C(=O)NCCO)n1C [CP507, 1,6-Dimethyl-3-hydroxy-4(1H)-pyridinone-2-carboxy-(N-2′-hydroxyethyl)-amide hydrochloride] | – | – | – | – | – | – | – | – | – | – |
| 0.16 | – | 35.13 | 23.46 | – | 2.61 | 2.61 | 8.1 | 8.1 | Cc1cc(=O)c(O)c(C(=O)N(C)C)n1C [CP508, 1,6-Dimethyl-3-hydroxy-4(1H)-pyridinone-2-carboxy-(N,N-dimethyl)-amide hydrochloride] | – | – | – | – | – | – | – | – | – | – |
| 2.81 | – | 35.57 | 23.15 | – | 2.59 | 2.6 | 8.38 | 8.39 | O=c1ccn(CCO)c(C(O)c2ccccc2)c1O (centres unmarked) [Novartis bidentate ligand (3), reference compound] | – | – | – | – | – | – | – | – | – | – |

| Compound | DpH 7.4 [1] | pKa, second value (s) ([2]; method marked (s), second pKa) | Logβ3 [3] | pMpH 7.45 [4] | melting point [°C] | pKa [2, 8] | pKa [2, 9] | pKa [2, 10] | pKa [2, 11] | pKa, first value (s) ([2]; method marked (s), first pKa) | Iron Mobilisation ([5]; 150 μmol/kg) [%] | Efficacy ([5]; 150 μmol/kg) [%] | Iron Mobilisation ([5]; 300 μmol/kg) [%] | Efficacy ([5]; 300 μmol/kg) [%] | Iron Mobilisation ([5]; 450 μmol/kg) [%] | Efficacy ([5]; 450 μmol/kg) [%] | effectiveness in man [6] | crossing of placenta and blood brain barrier [7] | phase II metabolism [7] |
| --- | --- | --- | --- | --- | --- | --- | --- | --- | --- | --- | --- | --- | --- | --- | --- | --- | --- | --- | --- |
| Cc1c(O)c(=O)ccn1C [CP20, reference compound] | 0.17 | 9.64 | 36.3 | 19.4 | – | – | – | – | – | 3.56 | 6.3 ± 2.1 | 2.4 | 9.2 ± 2.2 | 5.4 | 13.4 ± 5.2 | 9.5 | effective in man | able to cross the placenta and blood brain barrier | rapidly inactivated by phase II metabolism |
